The text below walks through data of patent US5700640A, “Inducers of gamma globin gene expression and screening assays therefor” (priority 1994, dated 1997).

Test [1] has as its system erythroid differentiation of cultured cells. The following applies: Leder and Leder 1975; cited from earlier work.
Test [2] has as its system gamma globin gene expression (gamma3'PE reporter) in K562 cells. The test can be described thus: gamma globin promoter-luciferase reporter assay in stably transfected gamma3'PE K562 cells. The protocol:
The gamma globin 5' promoter and 3' enhancer fragments, alone or in combination with each other or another fragment, were inserted into restriction endonuclease sites flanking the coding sequences of the luciferase gene in pGL2 using standard recombinant DNA techniques (pGL2 was obtained commercially from Promega Biotech). Constructs were prepared which contained: 1) the gamma globin promoter alone upstream of the luciferase gene (gamma); 2) the gamma globin promoter upstream of the luciferase gene and the gamma globin 3' enhancer downstream of the luciferase gene (gamma3'PE); 3) the gamma globin promoter upstream of the luciferase gene and the SV40 enhancer downstream of the luciferase gene (gammaSV40); 4) the beta globin promoter upstream of the luciferase gene and the gamma globin 3' enhancer downstream of the luciferase gene Coeta3'PE); and 5) hypersensitive sites 2 and 3 G-IS2 and HS3) of the 5' globin enhancer upstream of the gamma globin promoter upstream of the luciferase gene and the gamma globin 3' enhancer downstream of the luciferase gene (HS2/3gamma3'PE). These constructs are illustrated schematically in FIG. 2.
The gamma globin-luciferase reporter gene constructs described in Example 1 were introduced into a human erythroleukemia cell line K562 (ATCC No. CCL 243). To create stable transfectants, K562 cells (5×10^6) in log phase were suspended in 400 μl HEPES buffered saline and then combined with 33.5 μg salmon testes DNA (Sigma), 1.5 μg neo plasmid (pPMT) and 15 μg reporter gene plasmid supercoiled that had been co-precipitated and suspended in 400 μl HEPES buffered saline. The DNA-cell mixture was electroporated at settings of 0.25 KV and 960 μFD using a Gene Pulser (BioRad Inc.) electropotation apparatus.
The cells were allowed to recover 10 minutes at room temperature, then added to 10 ml complete RPMI cell culture medium. Cell debris was removed by centrifugation at 1000 rpm for 5 minutes. The live cells were suspended in 20 ml RPMI in 2×10 cm dishes and grown in non-selective media for 48 hours. Stably transfected cells were then selected by growing the cells in media containing 300 μg/ml G418 for about one month. During this time the cells were split 1:5 every 3 to 4 days. Once the lines were stable, they were carried in 100 μg/ml G418. The cell lines were designated according to the reporter gene construct that was introduced into the cell line. For example, a cell line carrying the gamma'3PE construct was designated gamma3'PE. Transient transfections were carried out similarly except that the neo plasmid was omitted from the electroporation solution and the cells were not subjected to G418 selection.
K562 host cells carrying gamma globin-reporter gene constructs were used to lo screen compounds for their ability to induce globin gene expression, as measured by increased reporter gene activity in the host cells upon treatment with the compound. The host cells described in Example 2 were grown to log phase cells and plated at a density of 2×10^5 /ml in RPMI media without G418. After 24 hours, compounds to be assayed for their ability to induce globin gene expression were dissolved in RPMI media at a concentration of 5 mM and added to the K562 stable transfectants. Mock-treated stably transfected K562 cells served as a negative control. The cells were incubated with the test compounds at 37° C. for various time periods (e.g., 24, 50, 74 and 122 hours).
After induction with the test compounds, the cells were harvested, lysed and assayed for reporter gene activity (i.e., luciferase activity) as follows. Cells were collected, washed once with PBS and lysed in 200 μl Cell Culture Lysis 1 X Reagent (Promega Luciferase Assay System) consisting of 25 mM Tris-Phosphate pH 7.8; 2 mM DTT; 2 mM 1,2-diaminocyclohexane-N,N,N,N-tetraacetic acid; 10% glycerol; 1% Triton X-100.
On the technique in general: In a reporter assay the amount or activity of a reporter protein is the signal.

Test [3] relates to gamma globin promoter deletion-luciferase constructs in K562 cells. In words: BA inducibility of gamma globin promoter deletion constructs. The following applies: 5 mM BA, 24 hours. In kind it is cell-based, human. An excerpt: Luciferase reporter gene constructs containing serial deletions in the 5' end of the gamma globin promoter were made by cloning truncated promoter DNA fragments upstream (i.e., 5') of the luciferase gene in pGL2. The gamma globin 3' Proximal Enhancer element (3'PE) was cloned downstream (i.e., 3') of the luciferase reporter gene in these constructs. Truncated gamma globin promoter DNA fragments were generated by PCR using as the upstream primer oligonucleotides having the sequences:
To create a construct with 5' terminus at position -140, the -577 reporter gene construct was digested with NcoI and KpnI, the fragment containing the deleted promoter and reporter gene (i.e., the large restriction fragment) was treated with T4 DNA polymerase to fill-in the restriction sites and the fragment was treated with T4 DNA ligase to religate the construct.
To determine the inducibility of each deletion construct by butyric acid, the constructs were introduced into K562 cells by electropotation as described above. Forty-eight hours after transfection, the cells were treated with 5 mMBA. Luciferase activity was measured 24 hours later. The inducibility of the deletion constructs is illustrated in FIGS. 16 and 17.

Test [4] relates to neoplastic and non-neoplastic cells. The following applies: Newmark et al. 1994; cited from earlier work.

In the case of `CCCC(=O)O` [BA, butyric acid], the “induction of erythroid differentiation” value in test [1] is recorded as “potent inducer of erythroid differentiation of cultured cells”. Moreover, the “induction of gamma-globin reporter gene expression over time course (FIG. 3)” value in test [2] (5 mM, 24-122 hr, normalized to viable cells) is recorded as “initially a strong inducer of gamma-globin gene expression”. The “level of induction by the conclusion of the time course (FIG. 3)” value in test [2] (5 mM, normalized to viable cells) is “dropped below the level of uninduced cells by the conclusion of the time course”. Besides, the fold induction at 5000 µM in test [2] (Homo sapiens, K562, 72 h, read-out: fold induction of reporter gene activity (FIG. 6)) was approximately 2. Further, in test [3], the “BA inducibility on promoter deletion to -108” value was “markedly reduced the BA inducibility of the construct” and the “BA responsiveness on promoter deletion from -1260 to -140” value is “did not significantly alter the responsiveness of the reporter construct to BA”. In addition, the induction of differentiation entry in test [4] was “induce differentiation of neoplastic and non-neoplastic cells”.
